In patent US8436003B2, “Substituted imidazo- and triazolopyrimidines, imidazo- and pyrazolopyrazines and imidazotriazines” (Bayer Intellectual Property GmbH, priority 2008, dated 2013):
pIC50: −log10 of the molar value.

Each compound was assayed against T1, GSK3β (Homo sapiens, UniProt P49841) (assay: In vitro biochemical GSK3β inhibition assay (coupled pyruvate kinase/lactate dehydrogenase, NADH fluorescence)). Details: 5 nM GSK3β, 40 μM GSK3β substrate GSM, 50 μM ATP, 30° C. for 2 hours.
T1 construct: purchased Upstate 14-306
T1 sequence (P49841 whole entry): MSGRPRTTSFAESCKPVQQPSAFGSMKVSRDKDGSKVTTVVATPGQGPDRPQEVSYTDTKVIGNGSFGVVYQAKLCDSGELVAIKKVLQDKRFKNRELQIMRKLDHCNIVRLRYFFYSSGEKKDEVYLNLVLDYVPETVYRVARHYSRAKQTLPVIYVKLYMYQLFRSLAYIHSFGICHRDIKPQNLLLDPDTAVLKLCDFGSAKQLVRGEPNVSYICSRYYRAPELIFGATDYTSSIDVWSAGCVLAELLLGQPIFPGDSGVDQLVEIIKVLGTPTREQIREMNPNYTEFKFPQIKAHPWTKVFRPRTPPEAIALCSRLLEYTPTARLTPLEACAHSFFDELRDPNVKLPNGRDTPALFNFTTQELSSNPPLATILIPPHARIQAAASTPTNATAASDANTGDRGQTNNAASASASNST
Protocol: The inhibitory activity of active substances is determined in a biochemical assay. The ingredients required for this purpose are mixed in a black 384-well microtitre plate with transparent base (from Greiner, catalogue number 781092). The requirements in this connection for each well of the 384-well microtitre plate are 5 nM GSK3β (from Upstate, catalogue number 14-306), 40 μM GSK3β substrate GSM (sequence H-RRRPASVPPSPSLSRHS-(pS)-HQRR, from Upstate, catalogue number 2-533), 30 μM nicotinamide adenine dinucleotide NADH (Roche Diagnostics, catalogue number 10107735), 50 μM adenosine triphosphate ATP (from Sigma, catalogue number A7966), 2 mM phosphoenolpyruvate (from Roche, catalogue number 128112), and also about 1 U/ml of pyruvate kinase and about 1 U/ml of lactate dehydrogenase, which are present together in a stock formulation (from Roche, catalogue number 10737291001, suspension with about 450 U/ml of pyruvate kinase activity, about 450 U/ml of lactate dehydrogenase activity in […] ammonium sulphate solution pH 6), where 1 unit pyruvate kinase converts, at pH 7.6 and 37° C., 1 μmol of phosphoenolpyruvate into pyruvate per minute, and where 1 unit of lactate dehydrogenase reduces, at pH 7.5 and 37° C., 1 μmol of pyruvate to lactate per minute. The required reaction buffer in which the biochemical reaction takes place consists of 50 mM Trizma hydrochloride Tris-HCl pH: 7.5 (from Sigma, catalogue number T3253), 5 mM magnesium chloride MgCl2 (from Sigma, catalogue number M8266), 0.2 mM DL-dithiothreitol DTT (from Sigma, catalogue number D9779), 2 mM ethylenediaminetetraacetic acid EDTA (from Sigma, catalogue number E6758), 0.01% Triton X-100 (from Sigma, catalogue number T8787) and 0.05% bovine serum albumin BSA (from Sigma, catalogue number B4287).
Active substances are dissolved in dimethyl sulfoxide DMSO (from Sigma, catalog number D8418) in a concentration of 10 mM. Active substances are added in serial concentrations of 10 μM, 1 μM, 0.1 μM, 0.01 μM, 0.001 μM, 0.0001 μM, 0.00001 μM, 0.000001 μM to the mixtures of the biochemical reaction. As control, dimethyl sulfoxide is added instead of substance in a final concentration of 0.1%.
The reaction is incubated at 30° C. for 2 hours and then the resulting fluorescence is measured in a Tecan Safire-XFLUOR4 instrument, version V4.50 (serial number 12901300283) with the specifications: measurement mode—fluorescence measured from below, extinction wavelength 340 nm, emission wavelength 465 nm, slit width extinction 5 nm, slit width emission 5 nm, gain mode 120, delay 0 μs, number of light flashes per measurement 3, and an integration time of 40 μs.
The activity of the active substances is calculated in relation to these 0% and 100%.

Row | pIC50 | Compound
1 | 8.00 | CC(C)N1CCC(c2nc3cc(-c4ccc(Cl)cc4Cl)nc(N4CCCC(Nc5ccc(C(=O)C(F)(F)F)c(N)n5)C4)n3n2)CC1 (stereo not drawn) [Example 5, 1-{2-Amino-6-[(1-{7-(2,4-dichlorophenyl)-2-[1-(propan-2-yl)piperidin-4-yl][1,2,4]triazolo[1,5-c]-pyrimidin-5-yl}piperidin-3-yl)amino]pyridin-3-yl}-2,2,2-trifluoroethanone]
2 | 7.82 | CC(C)N1CCC(c2nc3cc(-c4ccc(Cl)cc4Cl)nc(NCCNc4ccc(C(=O)C(F)(F)F)c(N)n4)n3n2)CC1 [Example 1, 1-(2-Amino-6-{[2-({7-(2,4-dichlorophenyl)-2-[1-(propan-2-yl)piperidin-4-yl][1,2,4]triazolo[1,5-c]-pyrimidin-5-yl}amino)ethyl]amino}pyridin-3-yl)-2,2,2-trifluoroethanone]
3 | 8.40 | CC(C)N1CCC(c2nc3cc(-c4ccc(F)cc4Cl)nc(N4CCCC(Nc5ccc(C(=O)C(F)(F)F)c(N)n5)C4)n3n2)CC1 (racemic) [Example 13, 1-{2-Amino-6-[(1-{7-(2-chloro-4-fluorophenyl)-2-[1-(propan-2-yl)piperidin-4-yl][1,2,4]-triazolo[1,5-c]pyrimidin-5-yl}piperidin-3-yl)amino]pyridin-3-yl}-2,2,2-trifluoroethanone]
4 | 7.70 | Nc1nc(NCCNc2nc(-c3ccc(Cl)cc3Cl)cc3nc(C4CCN(CC5CC5)CC4)nn23)ccc1C(=O)C(F)(F)F [Example 21, 1-(2-Amino-6-{[2-({2-[1-(cyclopropylmethyl)piperidin-4-yl]-7-(2,4-dichlorophenyl)-[1,2,4]triazolo[1,5-c]pyrimidin-5-yl}amino)ethyl]amino}pyridin-3-yl)-2,2,2-trifluoroethanone]
5 | 8.70 | CC(C)N1CCC(c2nc3cc(-c4ccc(F)cc4Cl)nc(N4CCCC(Nc5ccc(C(=O)C(F)(F)F)c(N)n5)C4)n3n2)CC1 (racemic) [Example Ent-A-13, 1-{2-Amino-6-[(1-{7-(2-chloro-4-fluorophenyl)-2-[1-(propan-2-yl)piperidin-4-yl][1,2,4]-triazolo[1,5-c]pyrimidin-5-yl}piperidin-3-yl)amino]pyridin-3-yl}-2,2,2-trifluoroethanone]
6 | 8.05 | Nc1nc(NCCNc2nc(-c3ccc(Cl)cc3Cl)cc3nc(C4CCN(CC(=O)O)CC4)nn23)ccc1C(=O)C(F)(F)F [Example 23, (4-{5-[(2-{[6-Amino-5-(trifluoroacetyl)pyridin-2-yl]amino}ethyl)amino]-7-(2,4-dichlorophenyl)-[1,2,4]triazolo[1,5-c]pyrimidin-2-yl}piperidin-1-yl)acetic acid]
